Experiment [1] has as its system cultured human mast cells (CHMC). As to the kind of experiment: CHMC low cell density IgE activation: tryptase and LTC4 assays. The conditions noted are these: read-out: CHMC anti-IgE Tryptase. The experiment is classed as cell-based. The method, boiled down:
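Degranulation measured after 30 min anti-IgE challenge at 37° C of CHMC plated at 1000-1500 cells/well following 1 h preincubation. Readouts: LTC4 by ELISA on donor-specific diluted supernatants, and tryptase activity from a 30 min room-temperature substrate reaction.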

The test system is the same in experiment [2]. As to the kind of experiment: CHMC low cell density ionomycin activation: tryptase assay. The experiment is classed as cell-based. The conditions noted are these: read-out: CHMC Ionomycin Tryptase.
[3] abbreviates: Homo sapiens, Mast cell, Low Density CHMC, anti-IgE activation, tryptase readout.
Where [4] appears, read: Homo sapiens, Mast cell, Low Density CHMC, ionomycin activation, tryptase readout.

Results on 33 compounds are retold here after US10828301B2, “2,4-pyrimidinediamine compounds and their uses” (Rigel Pharmaceuticals, Inc, priority 2002, dated 2020).

SMILES strings stand for the structures. Some results are limits rather than exact numbers.

Regarding `COC(=O)c1ccc(CNc2nc(Nc3cccc(O)c3)ncc2C#N)cc1` [Compound R925821, 5-Cyano-N2-(3-hydroxyphenyl)-N4-(methoxycarbonylbenzyl)-2,4-pyrimidinediamine], the IC50 in experiment [1] (Low Density CHMC, anti-IgE activation, tryptase readout) is > 10 µM; in experiment [2] (Low Density CHMC, ionomycin activation, tryptase readout), > 10 µM.
Consider `Fc1cnc(N=Cc2ccoc2)nc1Nc1ccc2c(c1)OCCO2` [Compound R950203, N4-(3,4-Ethylenedioxyphenyl)-N2-(3-furanylmethylene)-5-fluoro-2,4-pyrimidinediamine], for which the IC50 in experiment [1] (setting [3]) is 9.04 µM; in experiment [2] (setting [4]) it was > 10 µM.
In the same order, the values of `Oc1ccc(Nc2ncc(F)c(Nc3ccc(O)cc3F)n2)c(F)c1` [Compound R926683, N2,N4-Bis(2-fluoro-4-hydroxyphenyl)-5-fluoro-2,4-pyrimidinediamine] are 10 µM and > 10 µM.
In the same order, the values of `Fc1cnc(Nc2cccc(-c3cnco3)c2)nc1Nc1ccc2c(c1)OCCO2` [Compound R926813, N4-(3,4-Ethylenedioxyphenyl)-5-fluoro-N2-[3-(1,3-oxazol-5-yl)phenyl]-2,4-pyrimidinediamine] are 0.152 µM and > 10 µM.
On the same counts, the results for `O=C(O)c1cc(Nc2ncc(F)c(Nc3ccc(O)c(C(=O)O)c3)n2)ccc1O` [Compound R945041, N2,N4-Bis(3-carboxy-4-hydroxyphenyl)-5-fluoro-2,4-pyrimidinediamine] are > 10 µM and > 10 µM.
Take `Oc1ccc(CCNc2ccnc(NCCc3ccc(O)cc3)n2)cc1` [Compound R925790, N2,N4-Bis[2-(4-hydroxyphenyl)ethyl]-2,4-pyrimidinediamine]: the IC50 in experiment [1] (setting [3]) and in experiment [2] (setting [4]) was > 10 µM throughout.
`CN(C)c1cccc(Nc2ncc(F)c(Nc3cccc(N(C)C)c3)n2)c1` [Compound R950182, N2,N4-Bis[3-(dimethylamino)phenyl]-5-fluoro-2,4-pyrimidinediamine]: the IC50 in experiment [1] (setting [3]) is 0.627 µM; in experiment [2] (setting [4]) it was > 10 µM.
In the same order, the values of `COc1ccc(-c2ccccc2)cc1Nc1ncc(C)c(Nc2cc(-c3ccccc3)ccc2OC)n1` [Compound R935000, N2,N4-Bis(2-methoxy-5-phenylphenyl)-5-methyl-2,4-pyrimidinediamine] are > 10 µM and > 10 µM.
On the same counts, the results for `Nc1nc(N(CC(O)c2ccccc2)c2ccc3c(c2)OCCO3)ncc1F` (stereo not drawn) [Compound R925765, N2-(3,4-Ethylenedioxyphenyl)-5-fluoro-N2-(2-hydroxy-2-phenylethyl)-2,4-pyrimidinediamine] are 6.8 µM and > 10 µM.
Turning to `CC(=O)Nc1ccc(Nc2ncc(F)c(Nc3ccc(NC(C)=O)cc3)n2)cc1` [Compound R940222, N2,N4-Bis-(4-Acetamidophenyl)-5-fluoro-2,4-pyrimidinediamine], the IC50 in experiment [1] (setting [3]) and in experiment [2] (setting [4]) was > 10 µM each time.
With `Cc1cc(Nc2ncc(F)c(Nc3ccc4c(c3)OCCO4)n2)c(C)cc1O` [Compound R926792, N2-(2,5-Dimethyl-4-hydroxyphenyl)-N4-(3,4-ethylenedioxyphenyl)-5-fluoro-2,4-pyrimidinediamine], the IC50 in experiment [1] (setting [3]) is 3.2 µM; in experiment [2] (setting [4]), > 10 µM.
On the same counts, the results for `N#Cc1cc(Nc2ncc(F)c(Nc3ccc(O)c(C#N)c3)n2)ccc1O` [Compound R950092, N2,N4-Bis(3-cyano-4-hydroxyphenyl)-5-fluoro-2,4-pyrimidinediamine] are > 10 µM and > 10 µM.
In the same order, the values of `CCOC(=O)c1cc2cc(Nc3ncc(F)c(Nc4ccc5[nH]c(C(=O)OCC)cc5c4)n3)ccc2[nH]1` [Compound R926616, N2,N4-Bis(2-ethoxycarbonylindol-5-yl)-5-fluoro-2,4-pyrimidinediamine] are 0.625 µM and 3.25 µM.
For `Oc1cccc(Nc2ncc(F)c(NCc3csc4ccccc34)n2)c1` [Compound R945146, N4-(Benzothiophen-3-ylmethyl)-5-fluoro-N2-(3-hydroxyphenyl)-2,4-pyrimidinediamine], the results for the IC50 in experiment [1] (setting [3]) and in experiment [2] (setting [4]) were 3.76 µM and > 10 µM, respectively.
In the case of `CCOC(=O)C(C)(C)c1ccc(Nc2nc(Nc3ccc4c(c3)OCCO4)ncc2F)cc1` [Compound R935172, N4-[4-[Ethoxycarbonyl(dimethyl)methyl]phenyl]-N2-(3,4-ethylenedioxyphenyl)-5-fluoro-2,4-pyrimidinediamine], the IC50 in experiment [1] (setting [3]) turned out to be 1.39 µM; in experiment [2] (setting [4]) it was 6.81 µM.
On the same counts, the results for `CC(=O)Nc1cccc(Nc2ncc(F)c(Nc3cccc(NC(C)=O)c3)n2)c1` [Compound R926682, N2,N4-Bis(3-acetamidophenyl)-5-fluoro-2,4-pyrimidinediamine] are 8.41 µM and > 10 µM.
Take `Oc1cccc(Nc2cc(Nc3cccc(O)c3)nc(Nc3cccc(O)c3)n2)c1` [Compound R926409, N2,N4,N6-Tris(3-hydroxyphenyl)-2,4,6-pyrimidinetriamine]: the results for the IC50 in experiment [1] (setting [3]) and in experiment [2] (setting [4]) were 3.15 µM and > 10 µM, respectively.
`COC(=O)C(CC(C)C)Nc1ncc(C#N)c(NC(CC(C)C)C(=O)OC)n1` (stereo not drawn) [Compound R925815, N2,N4-Bis(1-methoxycarbonyl-3-methylbutyl)-5-cyano-2,4-pyrimidinediamine]: the IC50 in experiment [1] (setting [3]) and in experiment [2] (setting [4]) was > 10 µM throughout.
Consider `Fc1cnc(NCCCN2CCN(Cc3c(F)cccc3Cl)CC2)nc1Nc1ccc2c(c1)OCCO2` [Compound R926717, N2-[3-[4-(2-Chloro-6-fluorobenzyl)piperazino]propyl]-N4-(3,4-ethylenedioxyphenyl)-5-fluoro-2,4-pyrimidinediamine], for which the values for the IC50 in experiment [1] (setting [3]) and in experiment [2] (setting [4]) were 7.87 µM and > 10 µM, respectively.
On the same counts, the results for `COC(=O)c1cc2cc(Nc3ncc(F)c(Nc4cccc(N)c4)n3)ccc2o1` [Compound R950162, N4-(3-Aminophenyl)-5-fluoro-N2-(2-methoxycarbonylbenzofurane-5-yl)-2,4-pyrimidinediamine] are 0.434 µM and > 10 µM.
On the same counts, the results for `CCOC(=O)c1nc(Nc2cccc(O)c2)nc(Nc2cccc(O)c2)c1[N+](=O)[O-]` [Compound R925849, N2,N4-Bis(3-hydroxyphenyl)-6-ethoxycarbonyl-5-nitro-2,4-pyrimidinediamine] are 8.2 µM and > 10 µM.
Turning to `CC(C)NC(=O)Oc1cccc(Nc2ncc(F)c(Nc3cccc(OC(=O)NC(C)C)c3)n2)c1` [Compound R926412, N2,N4-Bis(3-isopropylaminocarbonyloxyphenyl)-5-fluoro-2,4-pyrimidinediamine], the IC50 in experiment [1] (Homo sapiens, Mast cell) is 0.62 µM; in experiment [2] (Homo sapiens, Mast cell) it was > 10 µM.
In the case of `Cc1cnc(Nc2ccccc2-c2ccccc2)nc1Nc1ccccc1-c1ccccc1` [Compound R926404, N2,N4-Bis(2-phenylphenyl)-5-methyl-2,4-pyrimidinediamine], the IC50 in experiment [1] (setting [3]) and in experiment [2] (setting [4]) was > 10 µM throughout.
In the case of `OB(O)c1cccc(Nc2nc(Nc3cccc(O)c3)ncc2F)c1` [Compound R926755, 5-Fluoro-N4-(3-dihydroxyborylphenyl)-N2-(3-hydroxyphenyl)-2,4-pyrimidinediamine], the IC50 in experiment [1] (setting [3]) was 1.69 µM; in experiment [2] (setting [4]), > 10 µM.
On the same counts, the results for `COc1ccc(OCCNc2ncc(F)c(Nc3ccc4c(c3)OCCO4)n2)cc1` [Compound R950204, N4-(3,4-Ethylenedioxyphenyl)-5-fluoro-N2-[(4-methoxyphenyloxy)ethyl]-2,4-pyrimidinediamine] are 6.29 µM and > 10 µM.
For `C=CCNc1ncc(F)c(Nc2ccc3c(c2)OCCO3)n1` [Compound R925823, N2-Allyl-N4-(3,4-ethylenedioxyphenyl)-5-fluoro-2,4-pyrimidinediamine], the IC50 in experiment [1] (setting [3]) and in experiment [2] (setting [4]) was > 10 µM throughout.
Consider `COc1cc(Nc2ncc(F)c(Nc3ccc4c(c3)OCCO4)n2)cc(OC)c1OC` [Compound R926762, N4-(3,4-Ethylenedioxyphenyl)-5-fluoro-N2-(3,4,5-trimethoxyphenyl)-2,4-pyrimidinediamine], for which the IC50 is 0.386 µM in experiment [1] (setting [3]) and > 10 µM in experiment [2] (setting [4]).
In the same order, the values of `Oc1cccc(Nc2nc(Nc3ccc4[nH]ccc4c3)ncc2F)c1` [Compound R926749, 5-Fluoro-N4-(3-hydroxyphenyl)-N2-[(1H)-indol-5-yl]-2,4-pyrimidinediamine] are 0.472 µM and > 10 µM.
In the same order, the values of `CCOC(=O)c1cnc(Nc2ccc(CC#N)cc2)nc1Nc1ccc(CC#N)cc1` [Compound R926319, N2,N4-Bis(4-cyanomethylphenyl)-5-ethoxycarbonyl-2,4-pyrimidinediamine] are > 10 µM and > 10 µM.
Consider `COC(=O)C1Cc2cc(Nc3ncc(F)c(Nc4ccc(F)c(F)c4)n3)ccc2O1` (racemic) [Compound R927030, (±)-N4-(3,4-Difluorophenyl)-N2-(2,3-dihydro-2-methoxycarbonylbenzofuran-5-yl)-5-fluoro-2,4-pyrimidinediamine], for which the figures for the IC50 in experiment [1] (setting [3]) and in experiment [2] (setting [4]) were 0.26 µM and > 10 µM, respectively.
In the same order, the values of `COc1ccc(Nc2ncc(F)c(Nc3ccc(OC)c(O)c3)n2)cc1O` [Compound R926339, N2,N4-Bis(3-hydroxy-4-methoxyphenyl)-5-fluoro-2,4-pyrimidinediamine] are 0.66 µM and > 10 µM.
On the same counts, the results for `Oc1cccc(Nc2ncc(C(F)(F)F)c(Nc3cccc(O)c3)n2)c1` [Compound R925863, N2,N4-Bis(3-hydroxyphenyl)-5-trifluoromethyl-2,4-pyrimidinediamine] are 0.274 µM and > 10 µM.
On the same counts, the results for `c1coc(-c2cnc(Nc3ccc4c(c3)OCCO4)nc2Nc2ccc3c(c2)OCCO3)c1` [Compound R925785, N2,N4-Bis(3,4-ethylenedioxyphenyl)-5-(2-furanyl)-2,4-pyrimidinediamine] are 2.5 µM and > 10 µM.
